The values that follow come from patent publication US20230348978A1, “TREATMENT OF ALZHEIMER'S DISEASE” (SELONTERRA, INC., priority 2020, published 2023).

SMILES strings stand for the structures.

This assay concerns E4E4 neurons. The assay can be described thus: qPCR gene expression in E4E4 neurons treated with GPR4 agonist. The format is cell-based, human. The conditions noted are these: six hours, vs E4E4 vehicle-treated neurons. The text has this:
Example 1: Cultivation of human isogenic neurons carrying either the homozygous APOE4 genotype (E4E4) or the homozygous APOE3 genotype (E3E3). Commercially available human isogenic neurons were acquired from Fujifilm Cellular Dynamics Inc. The homozygous APOE4 genotype (E4E4) neurons were designated DDP-NRC-1× 01434.779 and herein they are referred to as E4E4 neurons. The homozygous APOE3 genotype (E3E3) neurons were designated R1013 and herein they are referred to as E3E3 neurons. The neurons were plated and cultivated in 96-well plates. Prior to plating of neurons, the manufacturer supplied complete maintenance medium was prepared and stored at 4 degrees Celsius. The 96-well plates were double coated with poly-L-ornithin (PLO Sigma; P4957) and laminin (Sigma; L2020) by first coating the wells with poly-L-ornithin overnight at 4 degrees Celsius. Wells were rinsed with phosphate-buffered saline and then laminin diluted in phosphate-buffered saline at a concentration of 10 micrograms/milliliter was added for three hours. Complete maintenance medium was equilibrated to room temperature. Neurons were thawed for three minutes in a 37 degrees Celsius water bath. The content of the vial was transferred to a 50 ml conical tube by adding one milliliter of room-temperature equilibrated complete maintenance medium and suspending the neurons. The neuron suspension was transferred to the 50 ml conical tube. This neuron suspension was further diluted by addition of eight milliliter of complete maintenance medium. A viable neuron count was performed and the neurons were plated into individual wells of a 96-well plate at a neuronal seed density of 125,000 neurons per cm^2. The E3E3 and the E4E4 containing 96-well plates were transferred into a cell incubator and incubated at 37 degrees Celsius and 5% CO2. E3E3 and E4E4 neurons plated in this way were allowed to attach to the wells of the 96-well plate for 24 hours at which time a 100% medium change to fresh complete maintenance medium was performed. The E3E3 and E4E4 neurons were then continued to be cultivated at 37 degrees Celsius and 5% CO2. On Day 5 after plating a 50% medium change was performed by removal of 50% of the cell supernatant and addition of the same volume of fresh complete maintenance medium and then the 96-well plates were continued to be cultivated at 37 degrees Celsius and 5% CO2. On Day 9 after plating, a 50% medium change was performed by removal of 50% of the cell supernatant and addition of the same volume of fresh complete maintenance medium. This medium change was performed before neurons were treated with compounds on Day 9 after plating.
Example 2: Treatment of E4E4 neurons with the exemplary GPR4 agonist SLC2004 and vehicle and E3E3 neurons with vehicle. E4E4 and E3E3 neurons were plated and cultivated in individual wells of a 96-well plate as described in Example 1. The compound spingosylphosphorylcholine (SLC2004) (Sigma; S4257) is a lyophilized powder with a white to yellow appearance and a molecular weight of 464.62 Dalton. A fresh stock solution of SLC2004 was prepared in methanol as vehicle at a stock concentration of 300 millimolar. This stock solution was further diluted to yield two 21-fold concentrated solutions of the intended in-well concentrations. For one of the 21-fold concentrated SLC2004 solution, a final SLC2004 in-well concentration of 3 micromolar was achieved by adding 10 microliters of this 21-fold concentrated SLC2004 solution to 200 microliters of complete maintenance medium in each well of the 96-well plate. For the second 21-fold concentrated SLC2004 solution, a final SLC2004 in-well concentration of 10 micromolar was achieved by adding 10 microliters of this 21-fold concentrated SLC2004 solution to 200 microliters of complete maintenance medium in each well of the 96-well plate. All wells with SLC2004-treated neurons contained the same amount of 0.01% methanol in complete maintenance medium. […]
A general note: Real-time PCR tracks product formation cycle by cycle.

With `CCCCCCCCCCCCC/C=C/[C@@H](O)[C@@H](N)COP(=O)([O-])OCC[N+](C)(C)C` [SLC2004, sphingosylphosphorylcholine], under “3 micromolar”, the “expression of CCND3” value is given as “upregulated”, the “expression of ITGB3” value is “downregulated” and the “expression of VCL” value is reported as “upregulated”. Moreover, under “10 micromolar”, the “expression of BDNF” value is recorded as “upregulated”, the “expression of CTGF” value is reported as “upregulated” and the “expression of YAP1” value is listed as “upregulated”.
